The text below walks through data of patent US12251449B2, “Synthetic multidomain peptide biomaterials that inhibit inducible nitric oxide synthase” (William Marsh Rice University, priority 2019, dated 2025).

For series [1], the system named is MOC1 tumors. The experiment in a line: MOC orthotopic murine model of oral cancer (Example 9). Conditions: established 4-5 mm MOC1 tumors, single intratumoral injection.
Protocol: MOC orthotopic murine model of oral cancer. MOC1 tumors were established by injecting 2×10^6 cells (70%:30% cells: Matrigel®Matrix) into the maxillary vestibule of the left oral cavity in C57BL/6J mice. […] Tumor growth was monitored by tumor size measurements (in diameter) taken at least two times per week using digital calipers to measure the longest dimension (single dimension). Data was then analyzed for Kaplan-Meier survival and tumor growth curves. […] Excessive tumor burden, defined as tumor diameter reaching 12 mm, tumor ulceration, or a weight loss of greater than 20% were factors that were considered for all endpoints in tumor growth and survival data.
Statistical methods. Statistical analyses were performed using Prism 7.0 (GraphPad, San Diego, CA). Statistical analyses for Kaplan-Meier survival curves were performed using the Log-rank/Mantel-Cox test. Statistical significance for tumor growth curves was determined by a two-way ANOVA test followed by selected comparison using Tukey's multiple comparison tests with multiple comparison correction. All p values were two-sided and p values less than 0.05 were considered significant.
The test system of series [2] is VEGF. The experiment in a line: Serum VEGF ELISA in mice bearing B16-F0 melanoma tumors. It is filed as in vivo. Conditions: 5 days after single 100 μL intratumoral injection. How it is done:
Evaluation of in vivo VEGF reduction using murine B16-F0 melanoma tumor model. C57BL/6J male mice were purchased from The Jackson Laboratory. […] All experiments were performed with approval of IACUC at Baylor College of Medicine (BCM) and followed established protocols. B16-F0 melanoma cell line was purchased from American Type Culture Collection (ATCC) and maintained according to manufacturer instructions (DMEM high-glucose with 10% fetal bovine serum and 1% penicillin/streptomycin). C57BL/6J mice were injected subcutaneously (s.c.) with 3×10^5 B16-F0 cells in a single flank. Once tumors became palpable (day 7 post-inoculation) mice were injected intratumorally (i.t.) with either vehicle buffer control Hank's Balanced Salt Solution (HBSS), free L-NIL dissolved in HBSS at 20 mM, K2-MDP hydrogel at 1 wt. % (5.6 mM peptide), or L-NIL-MDP hydrogel at 1 wt. % (5.2 mM peptide, or approximately 20 mM L-NIL functional groups). All injections were done using 100 μL total injection volume.
Mice were euthanized 5 days following i.t. injections and tumor/blood were collected. […] VEGF quantification of undiluted serum was performed using a mouse VEGF Quantikine ELISA kit (R&D Systems, Minneapolis, MN) following manufacturer's instructions. […] Statistical differences were evaluated using Tukey's multiple comparisons test. […]
A general note: An ELISA detects its analyte on a solid surface through an enzyme-linked reagent.

The subject of series [3] is RAW 264.7 cells. The experiment in a line: Live-dead viability of RAW 264.7 cells on MDP hydrogels. The format is cell-based, mouse. The following applies: RAW macrophages on 1 wt. % hydrogel, one to three days. How it is done:
Cell culture. For in vitro experiments, mouse RAW 264.7 cells (ATCC TIB-71) were grown in DMEM media supplemented with 10% Heat-Inactivated Fetal Bovine Serum (HI-FBS), L-glutamine, sodium pyruvate, and 1% penicillin-streptomycin. Cells were cultured at 37° C. with 5% CO2 and subcultured using scraping.
For 2-D culture live-dead viability studies, peptide hydrogels were pipetted into 0.4 cm^2 wells of Lab-Tek 16 well glass chamber slides (Thermo Fischer, Rochester, NY). Gels were pipetted to produce 70 μL pucks with a thickness of 1.75 mm. The gels were carefully pipetted into the bottom of each well and tapped before shear recovery to create flat gel profiles. After pipetting, the samples were allowed to shear recover for 5-10 min before adding 200 μL cell media and 10,000 RAW 264.7 cells. For each experiment time point (days 1 and 3) separate slides with duplicate gels were created. The cell media was changed every 2 days, taking care to not disturb or dislodge the gel material.
At each desired time point the following procedure was used to stain the cells for live-dead analysis. Live-dead staining solution was prepared in DPBS (Thermo Fisher Scientific, Rockford, IL) with 2 μM Calcein AM (Life Technologies), 4 μM Ethidium homodimer (Life Technologies), and 5 μg/mL Hoechst 33342 (BD Biosciences, San Jose, CA). Cell media was removed from the top of the hydrogel samples, which were then washed with PBS. Samples were then stained with 100 μL of prepared solution by incubating at 37° C. with 5% CO2 for 60 min while protected from light. After staining, the gels were removed from the glass chamber slides and placed in PBS before immediately imaging by confocal. Gels were analyzed by z-stack imaging using a Nikon A1 Confocal Microscope with a 40× water objective (405 nm blue channel laser, 488 nm green channel laser, 561 nm red channel laser). Image processing was done using NIS Elements, and Imaris Cell Counting software was used to quantify live-dead percentages.

In series [4] the target is T1, iNOS (Mus musculus, UniProt P29477).
T1 construct: endogenous in cells; host or cells: RAW 264.7 murine macrophages stimulated with LPS and IFN-gamma
T1 sequence (P29477 1-1144): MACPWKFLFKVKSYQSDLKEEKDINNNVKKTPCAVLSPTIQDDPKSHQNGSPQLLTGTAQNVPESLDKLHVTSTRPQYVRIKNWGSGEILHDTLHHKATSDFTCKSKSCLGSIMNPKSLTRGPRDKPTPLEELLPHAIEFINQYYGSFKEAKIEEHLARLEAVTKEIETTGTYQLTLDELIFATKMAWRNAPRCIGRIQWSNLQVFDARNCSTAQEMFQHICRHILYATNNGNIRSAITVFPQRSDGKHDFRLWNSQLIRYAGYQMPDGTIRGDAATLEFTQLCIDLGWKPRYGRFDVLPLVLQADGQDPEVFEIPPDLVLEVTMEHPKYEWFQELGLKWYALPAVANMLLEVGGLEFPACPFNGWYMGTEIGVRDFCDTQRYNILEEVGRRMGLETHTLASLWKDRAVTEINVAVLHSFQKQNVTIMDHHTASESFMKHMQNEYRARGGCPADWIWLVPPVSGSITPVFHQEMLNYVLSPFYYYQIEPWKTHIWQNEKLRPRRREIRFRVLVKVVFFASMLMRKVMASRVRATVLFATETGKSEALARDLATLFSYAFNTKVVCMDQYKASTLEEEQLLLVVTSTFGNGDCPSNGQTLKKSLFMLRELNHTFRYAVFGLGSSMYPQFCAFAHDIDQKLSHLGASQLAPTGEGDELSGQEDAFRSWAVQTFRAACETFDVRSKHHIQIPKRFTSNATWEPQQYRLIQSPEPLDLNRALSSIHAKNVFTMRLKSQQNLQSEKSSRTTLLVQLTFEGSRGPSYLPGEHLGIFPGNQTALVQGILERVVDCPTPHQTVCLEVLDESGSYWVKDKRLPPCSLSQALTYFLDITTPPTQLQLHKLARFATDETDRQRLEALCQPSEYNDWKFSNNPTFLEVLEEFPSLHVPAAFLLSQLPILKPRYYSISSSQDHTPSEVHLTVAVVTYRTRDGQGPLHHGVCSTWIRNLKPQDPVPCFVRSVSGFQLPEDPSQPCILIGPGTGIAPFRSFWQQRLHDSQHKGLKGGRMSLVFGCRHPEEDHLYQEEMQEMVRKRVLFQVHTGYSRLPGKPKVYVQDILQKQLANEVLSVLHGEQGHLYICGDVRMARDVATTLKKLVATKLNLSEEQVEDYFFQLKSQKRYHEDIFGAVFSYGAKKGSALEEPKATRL
The experiment in a line: iNOS knockdown in vitro Greiss assay. The format is cell-based. Conditions: stimulated RAW macrophages cultured on the hydrogel. How it is done:
iNOS knockdown in vitro Greiss assay. To evaluate the iNOS knockdown efficacy of various materials, the following procedure was used to test % iNOS inhibition of RAW 264.7 cells stimulated with Lipopolysaccharide (LPS, Thermo Fisher Scientific, Rockford, IL) and recombinant mouse IFN-7 (Biolegend, San Diego, CA). RAW macrophages were prepared at a stock concentration of 2.5×10^6 cells/mL, and plated at 2.5×10^5 cells per well in 24-well plates. For samples testing the efficacy of 2-D surface cell culture, 200 μL of MDP hydrogels was applied to evenly coat the surface of each well before addition of cells. Each experimental condition was performed in triplicate. The following controls were included in every experiment, 1) media alone, 2) stimulated cells alone, and 3) unstimulated cells alone. To each well, stimulation media or normal media was then added based on experimental requirement. Stimulation media was prepared with LPS (final concentration 1 μg/mL) and IFN-7 (final concentration 100 U/mL). For samples testing material efficacy in solution (e.g. free L-NIL), after 6 hrs of incubation at 37° C. with 5% CO2 the desired concentration of inhibitor was added to achieve a range of concentrations between 1 μM and 1 mM.
In all cases after 24 hours from time of stimulation, samples of cell media were collected from each well after mixing media by pipetting before collection. Media samples were placed into a 96-well plate and centrifuged at 5000 rpm for 10 min. Supernatants were removed and placed in a new clear 96-well plate, and samples were immediately analyzed using a colorimetric Greiss Assay (Cayman Chemical, Ann Arbor, MI) to assess nitrite levels (Bryan & Grisham, 2007). Color was allowed to develop for 10 min following addition of Greiss reagents, and absorbance was read at 540 nm on a plate reader. Percent iNOS inhibition for each sample was calculated by first subtracting the absorbance of the media-only baseline, and then converting to a percent of maximum nitrite signal as determined by the internal standard of stimulated cells alone.

Series [5] is described as follows: CDN drug release kinetics from hydrogels. The format is physicochemical. How it is done: Drug release kinetics. For release kinetics studies of CDN release from various hydrogel formulations, aliquots of CDN-loaded gel (30 μL each) were deposited into 96 well Falcon® flat bottom plates (Becton Dickinson Labware, Franklin Lakes, NJ). 30 μL gel was pipetted to generate a cylindrical puck in each well for each experiment. The pipetted gels were allowed to shear recover for approximately 5-10 min before adding 200 μL of the relevant buffer to the top of the gels (1× HBSS for all MDPs, 1× DPBS for collagen, Matrigel, 1× HBSS with 0.1 M CaCl2) for alginate, etc. according to the gelation requirements of the material). The addition of buffer was defined as t=0 for the beginning of release kinetics experiments. Table 1 summarizes the material conditions and preparation methods used for various comparative CDN delivery kinetics studies.
A Nanodrop 2000C Spectrophotometer (Thermo Scientific) was used to measure drug release by UV absorbance at 259 nm for CDN ML RR-S2 CDA, using an extinction coefficient of 24,000 M^−1cm^−1 (259 nm). Absorbance measurements were obtained by removing […] from the top of the liquid buffers above the loaded gels, over time measuring the increase in absorbance. Over the course of the first 24 hours, release of CDN was measured usually every 1-2 hours and converted to total percent released, with additional measurements also made every 24 hours for up to a week to establish when equilibrium had been reached.

Series [6] relates to iNOS. The experiment in a line: Anti-nitrotyrosine immunostaining of subcutaneously injected hydrogels. The format is in vivo, mice. The following applies: subcutaneous implants, 3 and 7 days post injection. How it is done:
Subcutaneous experiments and histology. C57BL/6J female mice were purchased from The Jackson Laboratory at age 8-12 weeks for subcutaneous characterization experiments. Mice were housed under specific pathogen-free conditions in standard temperature and lighting conditions with free access to food and water, and experiments were conducted with approval of the Institutional Animal Care and Use Committee (IACUC) at Rice University and according to NIH guidelines. Mice were injected with 100 μL MDP hydrogels in each of four separate sites in the subcutaneous space of the dorsal flank after the skin was shaved and sterilized with alcohol. At days 3, 7, 14, and 21 the mice were euthanized and the dorsal skin around the entire implant was removed, fixed overnight in 10% neutral buffered formalin, processed and paraffin embedded, and finally sectioned at […] thickness for staining using standard Masson's trichrome or hematoxylin and eosin (H&E) procedures, as well as immunohistochemical analyses (e.g., anti-nitrotyrosine IHC, or α-SMA blood vessel analysis).
Immunohistochemistry staining was performed on hydrogel implant tissue sections to further study in vivo properties of the L-NIL-MDP compared to related cationic MDPs. Anti-nitrotyrosine immunostaining was used to assess relative levels of nitrosylation of tyrosine within and around the subcutaneously injected hydrogel implants as a marker of iNOS inhibition (FIGS. 7A-H). It is known that the formation of nitric oxide (NO) and other nitrogen oxides in vivo can lead to observable post-translation modifications of peptides and proteins (Ischiropoulos, 2003). For example, surface-exposed 3-nitrotyrosine can be used as a marker of cell or tissue inflammation and damage by reactive nitrogen and oxygen species such as NO (Ahsan, 2013). The higher the local levels of iNOS activity, the greater should be the density of nitrosylated tyrosine. Therefore, visualization of nitrotyrosine levels by targeted antibodies can serve as a general indication of in vivo iNOS activity, or in the case of the L-NIL-MDP, local iNOS inhibition.

“Also recorded” adds a separate entry of the source.

`Nc1ncnc2c1ncn2[C@@H]1O[C@@H]2COP(O)(=S)O[C@@H]3C(O)[C@@H](COP(O)(=S)O[C@H]2[C@H]1O)O[C@H]3n1cnc2c(N)ncnc21` (stereo partly drawn) [CDN, ML RR-S2 CDA]: the “mice surviving to the 150-day endpoint” value in series [1] came to 20%.

As to `CC(=N)NCCCC[C@H](N)C(=O)O` [L-NIL, N6-(1-iminoethyl)-L-lysine, reference compound], the “reduction of systemic VEGF levels (in words)” value in series [2] was “not achieved”.

Regarding “Ac-EESLSLSLSLSLSLEE-NH2 [E2-MDP, E2(SL)6E2]”, the “cell attachment, survival and proliferation (in words)” value in series [3] is “poorer cell survival and proliferation rates”. The “iNOS inhibition (in words)” value in series [4] was “little to no iNOS inhibition”. Besides, the “CDN release profile (in words)” value in series [5] is given as “nearly identical release profiles to each other”.

In the case of “Ac-RRSLSLSLSLSLSLRR-NH2 [R2-MDP, R2(SL)6R2]”, the “cell attachment, survival and proliferation (in words)” value in series [3] was “highest degrees of cell attachment and proliferation”. Further, the “iNOS inhibition (in words)” value in series [4] is “little to no iNOS inhibition; also recorded: lowest iNOS inhibition”. Besides, in series [6], the “nitrotyrosine staining intensity (in words)” value is listed as “highest nitrotyrosine staining”.

As for O5(SL)6O5 [05-MDP], the “CDN release profile (in words)” value in series [5] is recorded as “nearly identical release profiles to each other”.
